Experimental data: patent publication US4239767A, “Antimycotic diaryloxy-imidazolyl-O,N-acetals” (Bayer Aktiengesellschaft, priority 1974, dated 1980)
In brackets after ≈: the same amount, converted by molar mass.

What was measured:
spores = conditions: prior art / commercially available products; cited from earlier work
Sporothrix Schenckii = test: in vitro series dilution test (MIC), Sporothrix Schenckii; format: cell-based; conditions: 28° C., 24-96 hours, 10^3 germs/ml, read-out: MIC values when used against Sporothrix Schenckii
Experimental: (§1) The in vitro test was carried out as a series dilution test. Amount inoculated: 10^3 germs/ml. The nutrient substrates used were Sabouraud's milieu d'epreuve, meat stock/glucose bouillon, malt extract agar and Francis's blood agar. The incubation temperature was 28° C. and the incubation time 24-96 hours.

Torulopsis glab. = test: in vitro series dilution test (MIC), Torulopsis glab.; format: cell-based; conditions: 28° C., 24-96 hours, 10^3 germs/ml; read-out: MIC values when used against Torulopsis glab.
Experimental: as §1

Trich. ment. [1] = test: in vitro series dilution test (MIC), Trich. ment.; format: cell-based; conditions: Trichophyton mentagrophytes; 28° C., 24-96 hours, 10^3 germs/ml; read-out: MIC values when used against Trich. ment.
Experimental: as §1

Cand. alb. = test: in vitro series dilution test (MIC), Cand. alb.; format: cell-based; conditions: 28° C., 24-96 hours, 10^3 germs/ml; read-out: MIC values when used against Cand. alb.
Experimental: as §1

Asp. fum. = test: in vitro series dilution test (MIC), Asp. fum.; format: cell-based; conditions: Aspergillus fumigatus; 28° C., 24-96 hours, 10^3 germs/ml; read-out: MIC values when used against Asp. fum.
Experimental: as §1

trichophytia [2] = test: in vivo action on oral administration, trichophytia of mice; design: key: ++++: very good action = no sign of; +++: good action = very slight sign of; ++: action = slight loss of hair; +: slight action = loss of hair, squamation; conditions: 100 mg/kg of body weight, twice daily, Control pronounced dermatophytosis
Source text: (§2) The table which follows summarizes in the vivo action of the preparations claimed on oral administration--for the models of candidosis of mice and trichophytia of mice--and on local administration--for the model of trichophytia of guinea-pigs.

trichophytia [3] = test: in vivo action on local administration, trichophytia of guinea-pigs; design: key: ++++: very good action = no sign of; +++: good action = very slight sign of; ++: action = slight loss of hair; +: slight action = loss of hair, squamation; conditions: 1% strength solution once a day from the 3rd to the 13th day after infection, Control pronounced dermatophytosis
Source text: as §2

candidosis = test: in vivo action on oral administration, candidosis of mice; conditions: 100 mg/kg of body weight, twice daily, Control 5
Source text: as §2

Trich. ment. [4] = test: sporocidal action, Trich. ment. spores; format: cell-based, Trichophyton mentagrophytes; conditions: 10 γ of preparation/ml, 72 hours; Control 10^5 = mycelium
Experimental: (§3) About 10^4 spores of Trich. ment. or Trich. Quinckeanum or Aspergillus fumigatus per ml are suspended in physiological NaCl solution and the stated preparations are added in concentrations of 1, 5, 10, 50 and 100 y/ml of suspending solution. The spore suspensions are incubated for 24, 48, 72, 96, 120 and 240 hours, 0.1 ml are withdrawn per concentration and per tube after the stated incubation times and spread homogeneously on malt extract Petri dishes, and the number of spores which still germinate is counted, after 48 hours' incubation time at 28° C., in comparison to untreated controls. The table which follows lists, for the individual preparations, the number of spores which still germinate after an exposure period of 72 hours at preparation concentrations of 10 γ/ml.

Aspergillus fum. = test: sporocidal action, Aspergillus fumigatus spores; format: cell-based; conditions: 10 γ of preparation/ml, 72 hours; Control 10^5 = mycelium
Experimental: as §3

| Structure (SMILES) | MIC (Sporothrix Schenckii) | MIC (Torulopsis glab.) | MIC (Trich. ment. [1]) | MIC (Cand. alb.) | MIC (Asp. fum.) | Therapeutic activity, trichophytia, oral administration (trichophytia [2]) | Therapeutic activity, trichophytia, local application (trichophytia [3]) | Therapeutic activity, candidosis, % survival (candidosis) | Number of spores still capable of germination, Trich. ment. (Trich. ment. [4]) | Number of spores still capable of germination, Aspergillus fum. (Aspergillus fum.) | other results |
| --- | --- | --- | --- | --- | --- | --- | --- | --- | --- | --- | --- |
| COC1=CC(=O)C[C@@H](C)[C@]12Oc1c(Cl)c(OC)cc(OC)c1C2=O [Griseofulvin] | – | – | – | – | – | – | – | – | – | – | sporocidal activity (spores): not present |
| C[C@@H]1[C@H](O)[C@@H](C)/C=C/C=C/CC/C=C/C=C/C=C/C=C/C(O[C@H]2O[C@H](C)[C@@H](O)[C@H](N)[C@@H]2O)CC2O[C@](O)(CC(O)C(O)CCC(O)CC(O)CC(O)CC(=O)O[C@H]1C)CC(O)C2C(=O)O (stereo partly drawn) [Nystatin] | – | – | – | – | – | – | – | – | – | – | sporocidal activity (spores): not present |
| CC(C)(C)C(O)C(Oc1ccc(-c2ccc(Cl)cc2)cc1)n1ccnc1 (stereo not drawn) [drawing 8] | 0.1 µg/mL (≈ 0.27 µM) | 4 µg/mL (≈ 10.8 µM) | < 1 µg/mL | 4 µg/mL (≈ 10.8 µM) | 2 to 4 µg/mL (≈ 5.39 to 10.8 µM) | – | – | – | – | – | – |
| CC(C)(C)C(O)C(Oc1ccc(Cc2ccccc2)cc1)n1ccnc1 (stereo not drawn) [drawing 9] | 0.5 µg/mL (≈ 1.43 µM) | 4 µg/mL (≈ 11.4 µM) | < 1 µg/mL | 4 µg/mL (≈ 11.4 µM) | < 1 µg/mL | – | – | – | – | – | – |
| CC(C)(C)C(O)C(Oc1ccc(S(=O)(=O)c2ccccc2)cc1)n1ccnc1 (stereo not drawn) [drawing 10] | 0.5 µg/mL (≈ 1.25 µM) | 4 µg/mL (≈ 9.99 µM) | < 1 µg/mL | 2 to 4 µg/mL (≈ 4.99 to 9.99 µM) | < 1 µg/mL | – | – | – | – | – | – |
| CC(C)(C)C(=O)C(Oc1c(Cl)cc(-c2ccc(Br)cc2)cc1Cl)n1ccnc1 (stereo not drawn) [drawing 11] | 0.1 µg/mL (≈ 0.207 µM) | 2 µg/mL (≈ 4.15 µM) | 4 µg/mL (≈ 8.3 µM) | 8 µg/mL (≈ 16.6 µM) | 4 µg/mL (≈ 8.3 µM) | – | – | – | – | – | – |
| CC(C)(C)C(=O)C(Oc1ccc(Cc2ccccc2)cc1)n1ccnc1 (stereo not drawn) [drawing 12] | 2 µg/mL (≈ 5.74 µM) | 4 µg/mL (≈ 11.5 µM) | < 1 µg/mL | 16 µg/mL (≈ 45.9 µM) | 2 µg/mL (≈ 5.74 µM) | – | – | – | – | – | – |
| CC(C)(C)C(=O)C(Oc1ccc(S(=O)(=O)c2ccccc2)cc1)n1ccnc1 (stereo not drawn) [drawing 13] | 2 µg/mL (≈ 5.02 µM) | 2 µg/mL (≈ 5.02 µM) | 64 µg/mL (≈ 161 µM) | 4 µg/mL (≈ 10 µM) | 1 µg/mL (≈ 2.51 µM) | – | – | – | – | – | – |
| CC(C)(C)C(=O)C(Oc1c(Cl)cc(-c2ccc(Br)cc2)cc1Br)n1ccnc1 (stereo not drawn) [drawing 14] | 4 µg/mL (≈ 7.6 µM) | 4 µg/mL (≈ 7.6 µM) | 8 µg/mL (≈ 15.2 µM) | 8 µg/mL (≈ 15.2 µM) | 4 µg/mL (≈ 7.6 µM) | – | – | – | – | – | – |
| CC(C)(C)C(O)C(Oc1ccc(-c2ccc(Cl)cc2)cc1)n1ccnc1 (stereo not drawn) [drawing 15] | – | – | – | – | – | +++ | ++++ | 80% | – | – | – |
| CC(C)(C)C(O)C(Oc1ccc(Cc2ccccc2)cc1)n1ccnc1 (stereo not drawn) [drawing 16] | – | – | – | – | – | ++ | +++ | 60% | – | – | – |
| CC(C)(C)C(O)C(Oc1ccc(S(=O)(=O)c2ccccc2)cc1)n1ccnc1 (stereo not drawn) [drawing 17] | – | – | – | – | – | ++ | +++ | 80% | – | – | – |
| CC(C)(C)C(=O)C(Oc1c(Cl)cc(-c2ccc(Br)cc2)cc1Cl)n1ccnc1 (stereo not drawn) [drawing 18] | – | – | – | – | – | ++ | +++ | 50% | – | – | – |
| CC(C)(C)C(=O)C(Oc1ccc(Cc2ccccc2)cc1)n1ccnc1 (stereo not drawn) [drawing 19] | – | – | – | – | – | +++ | ++ | 50% | – | – | – |
| CC(C)(C)C(=O)C(Oc1ccc(S(=O)(=O)c2ccccc2)cc1)n1ccnc1 (stereo not drawn) [drawing 20] | – | – | – | – | – | ++ | +++ | 80% | – | – | – |
| CC(C)(C)C(=O)C(Oc1c(Cl)cc(-c2ccc(Br)cc2)cc1Br)n1ccnc1 (stereo not drawn) [drawing 21] | – | – | – | – | – | + | ++ | 40% | – | – | – |
| CC(C)(C)C(O)C(Oc1ccc(-c2ccc(Cl)cc2)cc1)n1ccnc1 (stereo not drawn) [drawing 22] | – | – | – | – | – | – | – | – | 80 | 35 | – |
| CC(C)(C)C(O)C(Oc1ccc(Cc2ccccc2)cc1)n1ccnc1 (stereo not drawn) [drawing 23] | – | – | – | – | – | – | – | – | 110 | 40 | – |
| CC(C)(C)C(O)C(Oc1ccc(S(=O)(=O)c2ccccc2)cc1)n1ccnc1 (stereo not drawn) [drawing 24] | – | – | – | – | – | – | – | – | 60 | 70 | – |
| CC(C)(C)C(=O)C(Oc1c(Cl)cc(-c2ccc(Br)cc2)cc1Cl)n1ccnc1 (stereo not drawn) [drawing 25] | – | – | – | – | – | – | – | – | 90 | 40 | – |
| CC(C)(C)C(=O)C(Oc1ccc(Cc2ccccc2)cc1)n1ccnc1 (stereo not drawn) [drawing 26] | – | – | – | – | – | – | – | – | 40 | 60 | – |
| CC(C)(C)C(=O)C(Oc1ccc(S(=O)(=O)c2ccccc2)cc1)n1ccnc1 (stereo not drawn) [drawing 27] | – | – | – | – | – | – | – | – | 10^5 | 70 | – |
| CC(C)(C)C(=O)C(Oc1c(Cl)cc(-c2ccc(Br)cc2)cc1Br)n1ccnc1 (stereo not drawn) [drawing 28] | – | – | – | – | – | – | – | – | 60 | 45 | – |
